# According to the NIST ThermoML archive (doi:10.1016/j.jct.2005.05.008):
# Numbers after ± are expanded uncertainties.
# Experiments:
# [1] = an = ratio of the nth substance listed, in mol/kg; settings: 101 kPa, Liquid, Vibrating tube method
# [2] = 298.15 K; 101.33 kPa; Liquid
structure (smiles),measurement,setting,value
CCCC[N+](CCCC)(CCCC)CCCC.[O-][Cl+3]([O-])([O-])[O-] [tetrabutylammonium perchlorate] + CN(C)C=O,mass density,"[1]; 283.15 K, a1 = 0.02852",959.148 ± 0.27 kg/m3
same,mass density,"[1]; 283.15 K, a1 = 0.05393",960.097 ± 0.27 kg/m3
same,mass density,"[1]; 283.15 K, a1 = 0.07866",961.015 ± 0.27 kg/m3
same,mass density,"[1]; 283.15 K, a1 = 0.1047",961.969 ± 0.27 kg/m3
same,mass density,"[1]; 283.15 K, a1 = 0.1431",963.376 ± 0.27 kg/m3
same,mass density,"[1]; 283.15 K, a1 = 0.1824",964.794 ± 0.27 kg/m3
same,mass density,"[1]; 283.15 K, a1 = 0.222",966.232 ± 0.27 kg/m3
same,mass density,"[1]; 283.15 K, a1 = 0.2619",967.661 ± 0.27 kg/m3
same,mass density,"[1]; 293.15 K, a1 = 0.02852",949.672 ± 0.27 kg/m3
same,mass density,"[1]; 293.15 K, a1 = 0.05393",950.653 ± 0.27 kg/m3
same,mass density,"[1]; 293.15 K, a1 = 0.07866",951.604 ± 0.27 kg/m3
same,mass density,"[1]; 293.15 K, a1 = 0.1047",952.588 ± 0.27 kg/m3
same,mass density,"[1]; 293.15 K, a1 = 0.1431",954.042 ± 0.27 kg/m3
same,mass density,"[1]; 293.15 K, a1 = 0.1824",955.511 ± 0.27 kg/m3
same,mass density,"[1]; 293.15 K, a1 = 0.222",956.99 ± 0.27 kg/m3
same,mass density,"[1]; 293.15 K, a1 = 0.2619",958.466 ± 0.27 kg/m3
same,mass density,"[1]; 298.15 K, a1 = 0.02852",944.93 ± 0.27 kg/m3
same,mass density,"[1]; 298.15 K, a1 = 0.05393",945.929 ± 0.27 kg/m3
same,mass density,"[1]; 298.15 K, a1 = 0.07866",946.892 ± 0.27 kg/m3
same,mass density,"[1]; 298.15 K, a1 = 0.1047",947.89 ± 0.27 kg/m3
same,mass density,"[1]; 298.15 K, a1 = 0.1431",949.37 ± 0.27 kg/m3
same,mass density,"[1]; 298.15 K, a1 = 0.1824",950.86 ± 0.27 kg/m3
same,mass density,"[1]; 298.15 K, a1 = 0.222",952.366 ± 0.27 kg/m3
same,mass density,"[1]; 298.15 K, a1 = 0.2619",953.862 ± 0.27 kg/m3
same,mass density,"[1]; 303.15 K, a1 = 0.02852",940.173 ± 0.27 kg/m3
same,mass density,"[1]; 303.15 K, a1 = 0.05393",941.191 ± 0.27 kg/m3
same,mass density,"[1]; 303.15 K, a1 = 0.07866",942.17 ± 0.27 kg/m3
same,mass density,"[1]; 303.15 K, a1 = 0.1047",943.187 ± 0.27 kg/m3
same,mass density,"[1]; 303.15 K, a1 = 0.1431",944.69 ± 0.27 kg/m3
same,mass density,"[1]; 303.15 K, a1 = 0.1824",946.204 ± 0.27 kg/m3
same,mass density,"[1]; 303.15 K, a1 = 0.222",947.732 ± 0.27 kg/m3
same,mass density,"[1]; 303.15 K, a1 = 0.2619",949.254 ± 0.27 kg/m3
same,mass density,"[1]; 313.15 K, a1 = 0.02852",930.632 ± 0.26 kg/m3
same,mass density,"[1]; 313.15 K, a1 = 0.05393",931.686 ± 0.26 kg/m3
same,mass density,"[1]; 313.15 K, a1 = 0.07866",932.697 ± 0.26 kg/m3
same,mass density,"[1]; 313.15 K, a1 = 0.1047",933.756 ± 0.26 kg/m3
same,mass density,"[1]; 313.15 K, a1 = 0.1431",935.303 ± 0.27 kg/m3
same,mass density,"[1]; 313.15 K, a1 = 0.1824",936.87 ± 0.27 kg/m3
same,mass density,"[1]; 313.15 K, a1 = 0.222",938.448 ± 0.27 kg/m3
same,mass density,"[1]; 313.15 K, a1 = 0.2619",940.016 ± 0.27 kg/m3
same,mass density,"[1]; 323.15 K, a1 = 0.02852",921.05 ± 0.26 kg/m3
same,mass density,"[1]; 323.15 K, a1 = 0.05393",922.138 ± 0.26 kg/m3
same,mass density,"[1]; 323.15 K, a1 = 0.07866",923.191 ± 0.26 kg/m3
same,mass density,"[1]; 323.15 K, a1 = 0.1047",924.277 ± 0.26 kg/m3
same,mass density,"[1]; 323.15 K, a1 = 0.1431",925.877 ± 0.26 kg/m3
same,mass density,"[1]; 323.15 K, a1 = 0.1824",927.496 ± 0.26 kg/m3
same,mass density,"[1]; 323.15 K, a1 = 0.222",929.126 ± 0.26 kg/m3
same,mass density,"[1]; 323.15 K, a1 = 0.2619",930.747 ± 0.26 kg/m3
same,mass density,"[1]; 333.15 K, a1 = 0.02852",911.409 ± 0.26 kg/m3
same,mass density,"[1]; 333.15 K, a1 = 0.05393",912.535 ± 0.26 kg/m3
same,mass density,"[1]; 333.15 K, a1 = 0.07866",913.625 ± 0.26 kg/m3
same,mass density,"[1]; 333.15 K, a1 = 0.1047",914.75 ± 0.26 kg/m3
same,mass density,"[1]; 333.15 K, a1 = 0.1431",916.4 ± 0.26 kg/m3
same,mass density,"[1]; 333.15 K, a1 = 0.1824",918.08 ± 0.26 kg/m3
same,mass density,"[1]; 333.15 K, a1 = 0.222",919.765 ± 0.26 kg/m3
same,mass density,"[1]; 333.15 K, a1 = 0.2619",921.436 ± 0.26 kg/m3
CN(C)C=O [dimethylformamide] + C[N+](C)(C)C.[O-][Cl+3]([O-])([O-])[O-],mass density,"[1]; 283.15 K, a2 = 0",958.067 ± 0.27 kg/m3
same,mass density,"[1]; 293.15 K, a2 = 0",948.553 ± 0.27 kg/m3
same,mass density,"[1]; 298.15 K, a2 = 0",943.79 ± 0.27 kg/m3
same,mass density,"[1]; 303.15 K, a2 = 0",939.014 ± 0.27 kg/m3
same,mass density,"[1]; 313.15 K, a2 = 0",929.43 ± 0.26 kg/m3
same,mass density,"[1]; 323.15 K, a2 = 0",919.797 ± 0.26 kg/m3
same,mass density,"[1]; 333.15 K, a2 = 0",910.117 ± 0.26 kg/m3
CN(C)C=O [dimethylformamide] + CCCC[N+](CCCC)(CCCC)CCCC.[O-][Cl+3]([O-])([O-])[O-],mass density,"[1]; 283.15 K, a2 = 0",958.067 ± 0.27 kg/m3
same,mass density,"[1]; 293.15 K, a2 = 0",948.553 ± 0.27 kg/m3
same,mass density,"[1]; 298.15 K, a2 = 0",943.79 ± 0.27 kg/m3
same,mass density,"[1]; 303.15 K, a2 = 0",939.014 ± 0.27 kg/m3
same,mass density,"[1]; 313.15 K, a2 = 0",929.43 ± 0.26 kg/m3
same,mass density,"[1]; 323.15 K, a2 = 0",919.797 ± 0.26 kg/m3
same,mass density,"[1]; 333.15 K, a2 = 0",910.117 ± 0.26 kg/m3
"CC(=O)N(C)C [N,N-dimethylethanamide]",mass density,[2],936.357 ± 0.28 kg/m3
CN(C)C=O [dimethylformamide] + CC[N+](CC)(CC)CC.[O-][Cl+3]([O-])([O-])[O-],mass density,"[1]; 283.15 K, a2 = 0",958.067 ± 0.27 kg/m3
same,mass density,"[1]; 293.15 K, a2 = 0",948.553 ± 0.27 kg/m3
same,mass density,"[1]; 298.15 K, a2 = 0",943.79 ± 0.27 kg/m3
same,mass density,"[1]; 303.15 K, a2 = 0",939.014 ± 0.27 kg/m3
same,mass density,"[1]; 313.15 K, a2 = 0",929.43 ± 0.26 kg/m3
same,mass density,"[1]; 323.15 K, a2 = 0",919.797 ± 0.26 kg/m3
same,mass density,"[1]; 333.15 K, a2 = 0",910.117 ± 0.26 kg/m3
CN(C)C=O [dimethylformamide] + CCC[N+](CCC)(CCC)CCC.[O-][Cl+3]([O-])([O-])[O-],mass density,"[1]; 283.15 K, a2 = 0",958.067 ± 0.27 kg/m3
same,mass density,"[1]; 293.15 K, a2 = 0",948.553 ± 0.27 kg/m3
same,mass density,"[1]; 298.15 K, a2 = 0",943.79 ± 0.27 kg/m3
same,mass density,"[1]; 303.15 K, a2 = 0",939.014 ± 0.27 kg/m3
same,mass density,"[1]; 313.15 K, a2 = 0",929.43 ± 0.26 kg/m3
same,mass density,"[1]; 323.15 K, a2 = 0",919.797 ± 0.26 kg/m3
same,mass density,"[1]; 333.15 K, a2 = 0",910.117 ± 0.26 kg/m3
CN(C)C=O [dimethylformamide],mass density,[2],943.792 ± 0.28 kg/m3
